From PMC6009935 (Journal of Enzyme Inhibition and Medicinal Chemistry, 2017)

Legend:
[1] = target: T1, cannabinoid receptors (CBR) (Rattus norvegicus, UniProt P20272); test: biochemical; type: binding
T1 construct: a: performed in rat whole brain membrane homogenates; from tissue; host or cells: Wistar rat whole brain membrane homogenate
Method: (§1) Tris-HCl, EGTA, NaCl, MgCl2 x 6H2O, GDP, the GTP analogue GTPγS, were purchased from Sigma-Aldrich (Budapest, Hungary). Fatty acid free bovine serum albumin (BSA) was purchased from Serva (Heidelberg, Germany). Naloxone was kindly provided by the company Endo Laboratories DuPont de Nemours (Wilmington, DE, USA). HS665 was provided by Schmidhammer’s group (University of Innsbruck, Austria). […]
(§2) purchased from Tocris Bioscience (Bristol, UK).
(§3) DMSO. All compounds were stored in 1 mM stock solution at -20 °C. The radiolabelled GTP analogue, [35S]GTPγS (specific activity: 1000 Ci/mmol) were purchased from Hartmann Analytic (Braunschweig, Germany). [3H]DAMGO (specific activity: 38.8 Ci/mmol),12 [3H]IleDelt II (specific activity: 19,6 Ci/mmol), [3H]WIN55,212-2 (specific activity: 13,1 Ci/mmol) and [3H]HS665 (specific activity: 36.62 Ci/mmol),3 were radiolabeled by the Laboratory of Chemical Biology group in BRC (Szeged, Hungary).
(§4) For membrane homogenate preparations male and female Wistar rats (250-300 g body weight) and male guinea pigs (~700 g body weight, LAL/HA/BR strain) were used. Rats were housed in the local animal house of BRC (Szeged, Hungary), while guinea pigs were housed in LAB-ÁLL Bt.
(§5) (Budapest, Hungary). All the animals were kept in a temperature controlled room (21-24 °C) under a 12:12 light and dark cycle and were provided with water and food ad libitum. All housing and experiments were conducted in accordance with the European Communities Council Directives (2010/63/EU) and the Hungarian Act for the Protection of Animals in Research (XXVIII.tv. 32.§).
(§6) The total number of animals as well as their suffering was minimized.
(§7) Rat and guinea pig brain membrane homogenate preparation for binding assays Rats and guinea pigs were decapitated and their brains were quickly removed. The brains were prepared for membrane preparation as previously described,4 and partly used for binding experiments and partly were further prepared for the [35S]GTPγS binding experiments. Briefly the brains were homogenized, centrifuged in ice-cold 50 mM Tris-HCl (pH 7.4) buffer and incubated at 37 °C for 30 min in a shaking water-bath. After incubation the centrifugation was repeated as described above and the final pellet was suspended in 50 mM Tris-HCl pH 7.4 buffer containing 0.32 M sucrose, and stored at -80 °C. For the [35S]GTPγS binding experiments the final pellet of rat […]
(§8) brain membrane homogenate was suspended in ice-cold TEM (Tris-HCl, EGTA, MgCl2) and stored at -80 °C for further use.
(§9) Radioligand competition binding experiments
(§10) Aliquots of frozen rat brain membrane homogenates were centrifuged (18 000 rpm, 20 min, 4 °C) to remove sucrose and the pellets were suspended in 50 mM Tris-HCl buffer (pH 7.4). Membranes containing 0.4-0.8 mg/mL of protein were incubated in a final volume of 1 mL in the presence of unlabeled 5, 10 and 9 in increasing concentrations (10-11-10-5 M) in the presence of the appropriate radioligand in ~1 nM concentrations at certain temperature and amount of time depending on the radioligand ([3H]DAMGO and [3H]IleDelt II: 35 °C for 45 min; [3H]HS665: 30 °C, 45 min; [3H]WIN55,212-2: 30 °C for 60 min). Experiments performed with [3H]HS665 where incubated […]
(§11) more kappa receptors than the rat brain), while the rest of the radioligands were incubated together with rat whole brain membrane homogenates. Additionally, in experiments performed with […]
(§12) increasing concentrations (10-11-10-5 M) together with 50 mM Tris/HCl, 2.5 mM EGTA, 5 mM MgCl2 and 0.5 mg/mL fatty acid free BSA (pH 7.4). The level of non-specific binding was […]
(§13) binding was determined in the absence of unlabeled compounds. The reaction was terminated by rapid filtration under vacuum (Brandel M24R Cell Harvester), and washed three times with 5 mL ice-cold 50 mM Tris-HCl or 50 mM Tris/HCl, 2.5 mM EGTA, 5 mM MgCl2, 0.5 % BSA (pH 7.4) in case of [3H]WIN55,212-2. The filtration was accomplished through Whatman GF/C ([3H]DAMGO, [3H]IleDelt II and [3H]HS665) or GF/B ([3H]WIN55,212-2) glass fibers. In case of […]

[2] = tested on: hypothalamic synaptosomes; test: In vitro hypothalamic perfusion test (neurotransmitter release); type: cell-based, rat; settings: 10 µM
Method: was evaluated with the analysis of variance followed by Dunnett’s post-hoc comparisons using GraphPad Prism 6.03 software. Statistical significance was assumed at least for P<0.05.
In vitro hypothalamic perfusion test
Hypothalamic synaptosomes were obtained from 18 male adult Sprague-Dawley rats (290-340 g), as previously described.9
Then, the synaptosome suspension was incubated at 37°C, under O2/CO2 95%/5%, pH 7.35-7.45, in Krebs-Ringer buffer (mM: NaCl 125, KCl 3, MgSO4 1.2, CaCl2 1.2, Tris-HCl 10, glucose 10, ascorbic acid 1). After the incubation period, identical aliquots of synaptosome suspension (1.24 mg protein determined by bicinchoninic acid protein assay) were layered onto 0.8 μm Millipore filters, placed into 37°C water-jacketed superfusion chambers [18 different chambers for each experiment and perfused with Krebs-Ringer buffer (0.6 mL/min)], and perfusate was collected (2 min fractions) to detect released neurotransmitters by HPLC coupled to electrochemical detection. The analytical conditions for amine identification and quantification in the perfusate fractions were selected on the basis of previous experiments performed on hypothalamus homogenate.10
The experimental protocol includes three phases: 10 min perfusion with Krebs-Ringer buffer in […]
buffer (stimulus); 8 min perfusion with Krebs-Ringer buffer for return to basal condition (post-stimulus). Perfusate was collected starting from the 8th minute of pre-stimulus. Perfusate aliquots were stored at -80°C, then lyophilized and finally suspended in 1 mL HPLC grade water for neurotransmitter quantification. Neurotransmitter release was expressed as mean percentage release recovered in the stimulus and post-stimulus, compared with initial basal conditions (pre-stimulus

KOR = target: T2, KOR (Cavia porcellus, UniProt P41144); test: Radioligand competition binding with [3H]HS665; parameters: species or system guinea pig
T2 construct: b: performed in guinea pig whole brain membrane homogenates; from tissue; host or cells: guinea pig (LAL/HA/BR strain) whole brain membrane homogenate
Method: as §1, §2, §3, §4, §5, §6, §7, §8, §9, §10, §11
binding was determined in the absence of unlabeled compounds. […]

MOR = target: T3, MOR (Rattus norvegicus, UniProt P33535); test: Radioligand competition binding with [3H]DAMGO; settings: for Ki: Cheng-Prusoff; for IC50: read-out: logIC50 ± S.E.M., [3H]DAMGO (MOR) (converted)
T3 construct: a: performed in rat whole brain membrane homogenates; from tissue; host or cells: Wistar rat whole brain membrane homogenate
Method: as §1, §2, §3, §4, §5, §6, §7, §8, §9, §10, §11, §12, §13

[3] = rat whole brain membrane homogenates, logarithm of IC50, negative sign printed
[4] = rat whole brain membrane homogenates

Row | Structure (SMILES) | logIC50 ± S.E.M., [3H]WIN55,212 (CBR) [1, 3] | effect on dopamine (DA) release [2] | KOR binding affinity in words (KOR) | MOR binding affinity in words (MOR) | logIC50 ± S.E.M., [3H]DAMGO (MOR) (MOR; [3]) | CBR / CB1R binding affinity in words [1] | Ki ([1]; rat whole brain membrane homogenates, Cheng-Prusoff, read-out: Ki, [3H]WIN55,212 (CBR)) | IC50 ([1]; rat whole brain membrane homogenates, logarithm of IC50, negative sign printed, read-out: logIC50 ± S.E.M., [3H]WIN55,212 (CBR) (converted)) | effect on norepinephrine (NE) release [2] | effect on serotonin (5-HT) release [2] | Ki (KOR; guinea pig whole brain membrane homogenates, Cheng-Prusoff) | IC50 (KOR; guinea pig whole brain membrane homogenates, logarithm of IC50, negative sign printed, read-out: logIC50 ± S.E.M., [3H]HS665 (KOR) (converted)) | Selectivity ratio DOR/KOR (KOR; ratio of Ki values) | Ki (MOR; [4]) | IC50 (MOR; [3]) | Selectivity ratio DOR/MOR (MOR; ratio of Ki values) | Selectivity ratio KOR/MOR (MOR; ratio of Ki values)
1 | Cc1c(C(=O)NC2CCNCC2)nn(-c2ccc(Cl)cc2Cl)c1-n1cccc1 [Compound 5] | ambiguous | decreased | negligible | did not bind | ambiguous | – | – | – | – | – | – | – | – | – | – | – | –
2 | Cc1c(C(=O)NC2CCN(C(=O)[C@H](Cc3ccccc3)NC(=O)CNC(=O)[C@@H](C)NC(=O)[C@@H](N)Cc3ccc(O)cc3)CC2)nn(-c2ccc(Cl)cc2Cl)c1-n1cccc1 [Compound 9] | – | reduced inhibitory effect | unexpected improvement of affinity | loss in affinity | – | modest affinity | 5200 nM | 6030 nM | significant stimulatory effect | no significant effects | 170 nM | 263 nM | 2.61 | 34.4 nM | 204 nM | 12.88 | 4.93
3 | C[C@@H](NC(=O)[C@@H](N)Cc1ccc(O)cc1)C(=O)NCC(=O)N[C@@H](Cc1ccccc1)C(N)=O [Compound 10, Tyr-D-Ala-Gly-Phe-NH2, reference compound] | ambiguous | inhibitory effect | – | high affinity | – | did not show any affinity | – | – | significant stimulatory effect | inhibitory effect | – | – | – | 1 nM | 6.17 nM | – | –
